Assay results taken from PubChem BioAssay AID248 (DTP/NCI, 2004).
Several values for one entry are separate records, joined by “and”; a condition that tells them apart may be missing. Identical values can stand only once. Toxic doses and inconclusive results are not listed. No stated cut-off is given here; in the data, active means T/C of 150% or more; inactive means T/C below 125%.

Tested on: L1210 leukemia ip in BDF1 mice, survival T/C
Assay: NCI In Vivo Anticancer Drug Screen. Data for tumor model L1210 Leukemia (intraperitoneal) in B6D2F1 (BDF1) mice
Conditions: endpoint: mean survival time, higher = longer survival
Procedure, shortened: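 Survival endpoint. Drug-treated group vs vehicle group, expressed as T divided by C. Tumor passaged by transplantation.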

[1] = dose: 3.12 mg/kg/injection, schedule: Q01DX009 (ip), vehicle: saline
[2] = dose: 6.25 mg/kg/injection, schedule: Q01DX009 (ip), vehicle: saline
[3] = dose: 12.5 mg/kg/injection, schedule: Q01DX009 (ip), vehicle: saline
[4] = dose: 25.0 mg/kg/injection, schedule: Q01DX009 (ip), vehicle: saline
[5] = dose: 25.0 mg/kg/injection, schedule: Q04DX003 (ip), vehicle: saline
[6] = dose: 50.0 mg/kg/injection, schedule: Q01DX009 (ip), vehicle: saline
[7] = dose: 100.0 mg/kg/injection, schedule: Q01DX009 (ip), vehicle: Klucel (hydroxypropylcellulose) (HPC)
[8] = dose: 200.0 mg/kg/injection, schedule: Q01DX009 (ip), vehicle: Klucel (hydroxypropylcellulose) (HPC)
[9] = dose: 400.0 mg/kg/injection, schedule: Q01DX009 (ip), vehicle: Klucel (hydroxypropylcellulose) (HPC)
[10] = dose: 100.0 mg/kg/injection, schedule: Q01DX001 (ip), vehicle: saline
[11] = dose: 200.0 mg/kg/injection, schedule: Q01DX001 (ip), vehicle: saline
[12] = dose: 400.0 mg/kg/injection, schedule: Q01DX001 (ip), vehicle: saline

Measured: T/C

CN(C)CCCN1c2ccccc2CCc2ccc(Cl)cc21
inactive: [1] 97 % of control | [2] 108 % of control | [3] 94 % of control | [4] 94 % of control | [5] 96 % of control | [6] 101 % of control | dose: 50.0 mg/kg/injection, schedule: Q04DX003 (ip), vehicle: saline 96 % of control

C[N+](C)(C)Cc1ccccc1
inactive: dose: 1.56 mg/kg/injection, schedule: Q01DX009 (ip), vehicle: saline 102 % of control | [1] 91 % of control | dose: 5.0 mg/kg/injection, schedule: Q01DX001 (ip), vehicle: saline 98 % of control | [2] 117 % of control | dose: 6.5 mg/kg/injection, schedule: Q01DX009 (ip), vehicle: saline 100 % of control | dose: 10.0 mg/kg/injection, schedule: Q01DX001 (ip), vehicle: saline 102 % of control and 109 % of control | dose: 12.0 mg/kg/injection, schedule: Q04DX003 (ip), vehicle: saline 113 % of control | [3] 100 % of control | dose: 20.0 mg/kg/injection, schedule: Q01DX001 (ip), vehicle: saline 98 % of control and 91 % of control | [4] 99 % of control and 107 % of control | [5] 87 % of control | [6] 96 % of control | dose: 100.0 mg/kg/injection, schedule: Q01DX009 (ip), vehicle: saline 96 % of control

C1C2CC3C1C3/C2=N\N=C1/C2CC3C(C2)C13
inactive: dose: 75.0 mg/kg/injection, schedule: Q01DX001 (ip), vehicle: saline 101 % of control | dose: 150.0 mg/kg/injection, schedule: Q01DX001 (ip), vehicle: saline 89 % of control | dose: 300.0 mg/kg/injection, schedule: Q01DX001 (ip), vehicle: saline 98 % of control

CCCCCCCCCC[n+]1ccc(C(N)=O)cc1
inactive: dose: 5.0 mg/kg/injection, schedule: Q01DX009 (ip), vehicle: saline with Tween-80 97 % of control | dose: 5.0 mg/kg/injection, schedule: Q04DX003 (ip), vehicle: saline 97 % of control | dose: 10.0 mg/kg/injection, schedule: Q01DX009 (ip), vehicle: saline with Tween-80 96 % of control | dose: 10.0 mg/kg/injection, schedule: Q04DX003 (ip), vehicle: saline 94 % of control | dose: 20.0 mg/kg/injection, schedule: Q01DX009 (ip), vehicle: saline with Tween-80 96 % of control | dose: 20.0 mg/kg/injection, schedule: Q04DX003 (ip), vehicle: saline 103 % of control

CCN(CC)CCOC(=O)c1ccc(OCCOc2ccc(C(C)(C)CC(C)(C)C)cc2)c([N+](=O)[O-])c1
inactive: dose: 100.0 mg/kg/injection, schedule: Q04DX003 (ip), vehicle: saline sonified 96 % of control | dose: 200.0 mg/kg/injection, schedule: Q04DX003 (ip), vehicle: saline sonified 87 % of control | dose: 400.0 mg/kg/injection, schedule: Q04DX003 (ip), vehicle: saline sonified 98 % of control

COC1/C=C/OC2(C)Oc3c(C)c(O)c4c(O)c(c(C=NOC(c5ccccc5)c5ccccc5)c(O)c4c3C2=O)NC(=O)/C(C)=C/C=C/C(C)C(O)C(C)C(O)C(C)C(OC(C)=O)C1C (centres undefined)
inactive: dose: 25.0 mg/kg/injection, schedule: Q04DX003 (ip), vehicle: water 102 % of control | dose: 50.0 mg/kg/injection, schedule: Q04DX003 (ip), vehicle: water 102 % of control | dose: 100.0 mg/kg/injection, schedule: Q04DX003 (ip), vehicle: water 96 % of control | dose: 200.0 mg/kg/injection, schedule: Q04DX003 (ip), vehicle: water 98 % of control

CC(=O)Oc1cc(-c2ccc3c(c2)C2(C)c4cc(OC(C)=O)c5ccccc5c4OC2(C)N3C)c(OC(C)=O)c2ccccc12 (centres undefined)
inactive: dose: 100.0 mg/kg/injection, schedule: Q01DX001 (ip), vehicle: other 92 % of control | dose: 200.0 mg/kg/injection, schedule: Q01DX001 (ip), vehicle: other 88 % of control | dose: 400.0 mg/kg/injection, schedule: Q01DX001 (ip), vehicle: other 92 % of control

O=C(OCC#CC#CCOC(=O)c1cccc2ccccc12)c1cccc2ccccc12
inactive: [7] 93 % of control | [8] 89 % of control | [9] 93 % of control

CC(=O)c1cccc(NC(=O)Nc2ccc(CCO)cc2)c1
inactive: [7] 95 % of control | [8] 95 % of control | [9] 100 % of control

O=C(N/N=C/c1ccc2c(c1)OCO2)c1cccc2ccccc12
inactive: [10] 97 % of control | [11] 86 % of control | [12] 97 % of control

CN(C)CCCN1CC2CCCC1O2 (centres undefined)
inactive: dose: 50.0 mg/kg/injection, schedule: Q01DX001 (ip), vehicle: saline 90 % of control | [10] 102 % of control | [11] 100 % of control | [12] 94 % of control

O=S(=O)(Nc1cc(N2CCOCC2)c(O)c2ccccc12)c1ccccc1
inactive: dose: 25.0 mg/kg/injection, schedule: Q01DX001 (ip), vehicle: saline with Tween-80 95 % of control | dose: 50.0 mg/kg/injection, schedule: Q01DX001 (ip), vehicle: saline with Tween-80 97 % of control | dose: 100.0 mg/kg/injection, schedule: Q01DX001 (ip), vehicle: saline with Tween-80 94 % of control

CN1CCC(C=C2c3ccccc3Sc3ccccc32)C1 (centres undefined)
inactive: dose: 8.0 mg/kg/injection, schedule: Q01DX015 (ip), vehicle: carboxymethylcellulose (CMC) 110 % of control | dose: 16.0 mg/kg/injection, schedule: Q01DX015 (ip), vehicle: carboxymethylcellulose (CMC) 102 % of control | dose: 32.0 mg/kg/injection, schedule: Q01DX015 (ip), vehicle: carboxymethylcellulose (CMC) 96 % of control | dose: 64.0 mg/kg/injection, schedule: Q01DX015 (ip), vehicle: carboxymethylcellulose (CMC) 98 % of control

CC1CCN(C(=O)C(c2ccccc2)c2ccccc2)CC1
inactive: dose: 100.0 mg/kg/injection, schedule: Q04DX002 (ip), vehicle: Klucel (hydroxypropylcellulose) (HPC) 101 % of control | dose: 200.0 mg/kg/injection, schedule: Q04DX002 (ip), vehicle: Klucel (hydroxypropylcellulose) (HPC) 86 % of control | dose: 400.0 mg/kg/injection, schedule: Q04DX002 (ip), vehicle: Klucel (hydroxypropylcellulose) (HPC) 101 % of control

c1ccc(CNc2ncnc3c2ncn3Cc2ccccc2)cc1
inactive: dose: 100.0 mg/kg/injection, schedule: Q01DX001 (ip), vehicle: Klucel (hydroxypropylcellulose) (HPC) 94 % of control | dose: 200.0 mg/kg/injection, schedule: Q01DX001 (ip), vehicle: Klucel (hydroxypropylcellulose) (HPC) 104 % of control | dose: 400.0 mg/kg/injection, schedule: Q01DX001 (ip), vehicle: Klucel (hydroxypropylcellulose) (HPC) 98 % of control

CN1CCC(O)(C#N)CC1
inactive: dose: 7.5 mg/kg/injection, schedule: Q01DX001 (ip), vehicle: saline 101 % of control | dose: 15.0 mg/kg/injection, schedule: Q01DX001 (ip), vehicle: saline 106 % of control

OC1CCCCC1C1CCCCC1 (centres undefined)
inactive: dose: 50.0 mg/kg/injection, schedule: Q01DX009 (ip), vehicle: saline with Tween-80 94 % of control | dose: 100.0 mg/kg/injection, schedule: Q01DX009 (ip), vehicle: saline with Tween-80 94 % of control | dose: 100.0 mg/kg/injection, schedule: Q04DX002 (ip), vehicle: saline 121 % of control | dose: 300.0 mg/kg/injection, schedule: Q04DX002 (ip), vehicle: saline 107 % of control | dose: 400.0 mg/kg/injection, schedule: Q04DX002 (ip), vehicle: saline 100 % of control

CC(C)CCC(CCC(C)C)NCC(C)OC(=O)c1ccc(N)cc1 (centres undefined)
inactive: dose: 75.0 mg/kg/injection, schedule: Q01DX001 (ip), vehicle: carboxymethylcellulose (CMC) 93 % of control | dose: 150.0 mg/kg/injection, schedule: Q01DX001 (ip), vehicle: carboxymethylcellulose (CMC) 89 % of control
